Data as given in the NIST ThermoML archive (doi:10.1021/acs.jced.9b00442).

Key:
[1] = 100 kPa, Liquid; for electrical conductivity: Frequency=0.0006 MHz, Alternating current cell with electrodes; for viscosity: Concentric cylinders viscometry; for mass density: Vibrating tube method
[2] = refractive index (Na D-line) (dimensionless); conditions: 100 kPa, Liquid, Standard Abbe refractometry

CCCC[N+](C)(C)CC.O=S(=O)([N-]S(=O)(=O)C(F)(F)F)C(F)(F)F
Conditions	electrical conductivity [S/m]	mass density [kg/m3]	refractive index	viscosity [mPa·s]
[1], 283.15 K	0.082	–	–	–
[1], 288.15 K	0.11	1380.6	–	176.1
[1], 289.15 K	–	1379.7	–	–
[1], 290.15 K	–	1378.8	–	–
[1], 291.15 K	–	1377.9	–	–
[1], 292.15 K	–	1377	–	–
[1], 293.15 K	0.143	1376.1	–	132.4
[1], 294.15 K	–	1375.2	–	–
[1], 295.15 K	–	1374.3	–	–
[1], 296.15 K	–	1373.4	–	–
[1], 297.15 K	–	1372.5	–	–
[1], 298.15 K	0.182	1371.6	–	100.5
[1], 299.16 K	–	1370.8	–	–
[1], 300.16 K	–	1369.9	–	–
[1], 301.15 K	–	1369	–	–
[1], 302.15 K	–	1368.1	–	–
[1], 303.15 K	0.228	1367.2	–	78.4
[1], 304.15 K	–	1366.3	–	–
[1], 305.15 K	–	1365.4	–	–
[1], 306.15 K	–	1364.6	–	–
[1], 307.15 K	–	1363.7	–	–
[1], 308.15 K	0.279	1362.8	–	62.3
[1], 309.15 K	–	1361.9	–	–
[1], 310.15 K	–	1361.1	–	–
[1], 311.15 K	–	1360.2	–	–
[1], 312.15 K	–	1359.3	–	–
[1], 313.15 K	0.337	1358.4	–	50.9
[1], 314.15 K	–	1357.6	–	–
[1], 315.15 K	–	1356.7	–	–
[1], 316.15 K	–	1355.8	–	–
[1], 317.15 K	–	1355	–	–
[1], 318.15 K	0.401	1354.1	–	41.2
[1], 319.15 K	–	1353.2	–	–
[1], 320.15 K	–	1352.3	–	–
[1], 321.15 K	–	1351.5	–	–
[1], 322.15 K	–	1350.6	–	–
[1], 323.15 K	0.473	1349.7	–	34.2
[1], 324.15 K	–	1348.9	–	–
[1], 325.15 K	–	1348	–	–
[1], 326.15 K	–	1347.2	–	–
[1], 327.15 K	–	1346.3	–	–
[1], 328.15 K	–	1345.5	–	28.8
[1], 329.15 K	–	1344.6	–	–
[1], 330.15 K	–	1343.7	–	–
[1], 331.15 K	–	1342.9	–	–
[1], 332.15 K	–	1342	–	–
[1], 333.15 K	–	1341.2	–	24.8
[1], 334.15 K	–	1340.3	–	–
[1], 335.16 K	–	1339.5	–	–
[1], 336.15 K	–	1338.6	–	–
[1], 337.15 K	–	1337.8	–	–
[1], 338.15 K	–	1336.9	–	21
[1], 339.15 K	–	1336	–	–
[1], 340.15 K	–	1335.2	–	–
[1], 341.15 K	–	1334.3	–	–
[1], 342.15 K	–	1333.5	–	–
[1], 343.15 K	–	1332.6	–	18.2
[1], 344.15 K	–	1331.8	–	–
[1], 345.15 K	–	1330.9	–	–
[1], 346.15 K	–	1330.1	–	–
[1], 347.15 K	–	1329.2	–	–
[1], 348.15 K	–	1328.4	–	15.9
[1], 349.15 K	–	1327.5	–	–
[1], 350.15 K	–	1326.7	–	–
[1], 351.15 K	–	1325.9	–	–
[1], 352.15 K	–	1325	–	–
[1], 353.15 K	–	1324.2	–	14.2
[1], 354.15 K	–	1323.3	–	–
[1], 355.15 K	–	1322.5	–	–
[1], 356.15 K	–	1321.6	–	–
[1], 357.15 K	–	1320.8	–	–
[1], 358.15 K	–	1319.9	–	12.4
[1], 359.15 K	–	1319.1	–	–
[1], 360.15 K	–	1318.3	–	–
[1], 361.15 K	–	1317.4	–	–
[1], 362.16 K	–	1316.6	–	–
[1], 363.15 K	–	1315.7	–	11
[2], 283.15 K	–	–	1.4174	–
[2], 288.15 K	–	–	1.416	–
[2], 293.15 K	–	–	1.4147	–
[2], 298.15 K	–	–	1.4133	–
[2], 303.15 K	–	–	1.412	–
[2], 308.15 K	–	–	1.4106	–
[2], 313.15 K	–	–	1.4092	–
[2], 318.15 K	–	–	1.4078	–
[2], 323.15 K	–	–	1.4064	–
[2], 328.15 K	–	–	1.4051	–
[2], 333.15 K	–	–	1.4038	–
[2], 338.15 K	–	–	1.4024	–
[2], 343.15 K	–	–	1.4012	–
[2], 348.15 K	–	–	1.3998	–
[2], 353.15 K	–	–	1.3985	–
[2], 358.15 K	–	–	1.3973	–

CC[N+](C)(C)CCOC.O=S(=O)([N-]S(=O)(=O)C(F)(F)F)C(F)(F)F
Conditions	electrical conductivity [S/m]	mass density [kg/m3]	refractive index	viscosity [mPa·s]
[1], 283.15 K	0.141	–	–	–
[1], 288.15 K	0.182	1440.5	–	100.4
[1], 289.15 K	–	1439.5	–	–
[1], 290.15 K	–	1438.6	–	–
[1], 291.15 K	–	1437.6	–	–
[1], 292.15 K	–	1436.7	–	–
[1], 293.15 K	0.23	1435.7	–	78.3
[1], 294.15 K	–	1434.8	–	–
[1], 295.15 K	–	1433.8	–	–
[1], 296.15 K	–	1432.8	–	–
[1], 297.15 K	–	1431.9	–	–
[1], 298.15 K	0.285	1431	–	61.5
[1], 299.16 K	–	1430	–	–
[1], 300.16 K	–	1429.1	–	–
[1], 301.15 K	–	1428.1	–	–
[1], 302.15 K	–	1427.2	–	–
[1], 303.15 K	0.347	1426.2	–	49.5
[1], 304.15 K	–	1425.3	–	–
[1], 305.15 K	–	1424.4	–	–
[1], 306.15 K	–	1423.4	–	–
[1], 307.15 K	–	1422.5	–	–
[1], 308.15 K	0.415	1421.6	–	40.5
[1], 309.15 K	–	1420.6	–	–
[1], 310.15 K	–	1419.7	–	–
[1], 311.15 K	–	1418.8	–	–
[1], 312.15 K	–	1417.8	–	–
[1], 313.15 K	0.489	1416.9	–	33.9
[1], 314.15 K	–	1416	–	–
[1], 315.15 K	–	1415.1	–	–
[1], 316.15 K	–	1414.1	–	–
[1], 317.15 K	–	1413.2	–	–
[1], 318.15 K	0.57	1412.3	–	28.2
[1], 319.15 K	–	1411.4	–	–
[1], 320.15 K	–	1410.4	–	–
[1], 321.15 K	–	1409.5	–	–
[1], 322.15 K	–	1408.6	–	–
[1], 323.15 K	0.659	1407.7	–	24
[1], 324.15 K	–	1406.8	–	–
[1], 325.15 K	–	1405.9	–	–
[1], 326.15 K	–	1404.9	–	–
[1], 327.15 K	–	1404	–	–
[1], 328.15 K	–	1403.1	–	20.6
[1], 329.15 K	–	1402.2	–	–
[1], 330.15 K	–	1401.3	–	–
[1], 331.15 K	–	1400.4	–	–
[1], 332.15 K	–	1399.4	–	–
[1], 333.15 K	–	1398.5	–	18
[1], 334.15 K	–	1397.6	–	–
[1], 335.16 K	–	1396.7	–	–
[1], 336.15 K	–	1395.8	–	–
[1], 337.15 K	–	1394.9	–	–
[1], 338.15 K	–	1394	–	15.6
[1], 339.15 K	–	1393.1	–	–
[1], 340.15 K	–	1392.2	–	–
[1], 341.15 K	–	1391.3	–	–
[1], 342.15 K	–	1390.4	–	–
[1], 343.15 K	–	1389.5	–	13.7
[1], 344.15 K	–	1388.6	–	–
[1], 345.15 K	–	1387.7	–	–
[1], 346.15 K	–	1386.7	–	–
[1], 347.15 K	–	1385.8	–	–
[1], 348.15 K	–	1384.9	–	12.2
[1], 349.15 K	–	1384	–	–
[1], 350.15 K	–	1383.1	–	–
[1], 351.15 K	–	1382.2	–	–
[1], 352.15 K	–	1381.3	–	–
[1], 353.15 K	–	1380.4	–	11
[1], 354.15 K	–	1379.5	–	–
[1], 355.15 K	–	1378.6	–	–
[1], 356.15 K	–	1377.7	–	–
[1], 357.15 K	–	1376.9	–	–
[1], 358.15 K	–	1376	–	9.7
[1], 359.15 K	–	1375.1	–	–
[1], 360.15 K	–	1374.2	–	–
[1], 361.15 K	–	1373.3	–	–
[1], 362.16 K	–	1372.4	–	–
[1], 363.15 K	–	1371.5	–	8.8
[2], 283.15 K	–	–	1.4164	–
[2], 288.15 K	–	–	1.415	–
[2], 293.15 K	–	–	1.4136	–
[2], 298.15 K	–	–	1.4121	–
[2], 303.15 K	–	–	1.4107	–
[2], 308.15 K	–	–	1.4092	–
[2], 313.15 K	–	–	1.4078	–
[2], 318.15 K	–	–	1.4065	–
[2], 323.15 K	–	–	1.4051	–
[2], 328.15 K	–	–	1.4037	–
[2], 333.15 K	–	–	1.4024	–
[2], 338.15 K	–	–	1.4011	–
[2], 343.15 K	–	–	1.3998	–
[2], 348.15 K	–	–	1.3985	–
[2], 353.15 K	–	–	1.3972	–
[2], 358.15 K	–	–	1.3959	–
